Laboratory results as given in BindingDB's records for doi:10.1016/j.bmc.2012.08.006 (Chungnam National University, 2012).

Assay: Inhibition of IL-5 in mouse Y16 cells after 48 hrs by WST1 assay

Row | IC50 [µM] | Compound
1 | 15.4 | CCCN(CCO)Cc1coc2cccc(OCC3CCCCC3)c2c1=O
2 | 19.5 | CCN(CCO)Cc1coc2cccc(OCC3CCCCC3)c2c1=O
3 | 9 | COc1ccc(CN(CCO)Cc2coc3cccc(OCC4CCCCC4)c3c2=O)cc1
4 | 9.1 | O=c1c(CN(CCO)Cc2ccc(O)cc2)coc2cccc(OCC3CCCCC3)c12
5 | 9.4 | Cc1ccc(CN(CCO)Cc2coc3cccc(OCC4CCCCC4)c3c2=O)cc1
6 | 16.1 | O=c1c(CN(CCO)Cc2ccccc2)coc2cccc(OCC3CCCCC3)c12
7 | 12.4 | O=c1c(CN(CCO)CC2CCCCC2)coc2cccc(OCC3CCCCC3)c12
8 | 14.2 | O=c1c(CN(CCO)Cc2ccncc2)coc2cccc(OCC3CCCCC3)c12
9 | 10.3 | O=c1c(CN(CCO)Cc2ccc(Cl)cc2)coc2cccc(OCC3CCCCC3)c12
10 | 10.2 | CC(C)N(CCO)Cc1coc2cccc(OCC3CCCCC3)c2c1=O
11 | 9.2 | CCCCN(CCO)Cc1coc2cccc(OCC3CCCCC3)c2c1=O
12 | 14.3 | O=c1c(CN(CCO)c2ccccc2)coc2cccc(OCC3CCCCC3)c12
13 | 9 | O=c1c(CN(CCO)C2CCCCC2)coc2cccc(OCC3CCCCC3)c12
14 | 30.3 | CN(CCO)Cc1coc2cccc(OCC3CCCCC3)c2c1=O
